In patent US20230242616A1, “CHEMOKINE-SELECTIVE CXCR4 ECTODOMAIN-DERIVED (POLY)PEPTIDE” (Ludwig-Maximilians-Universität München, priority 2020, published 2023):

Legend:
[1] = tested on: primary human monocyte-derived macrophages; experiment: Dil-LDL uptake / foam cell formation, MIF-mediated; format: cell-based; conditions: 80 nM MIF
Protocol: Dil-LDL uptake/foam cell formation. […] After washing with imaging solution (MEM without phenol red containing 30 mM HEPES, 0.5 g/L NaHCO3, pH 7.4, and 0.2% BSA), cells were exposed to 50 μg/mL 1,1′-dioctadecyl-3,3,3′3′-tetra-methylindocarbocyanine-labeled LDL (Dil-LDL) for 30 min at 4° C. followed by incubation at 37° C. for 20 min. Cells were washed with ice-cold imaging solution (pH 3.5), fixed, and counter-stained with Hoechst 33258.

[2] = tested on: human monocyte-derived macrophages; conditions: from titration of the CXCR4 inhibitor
[3] = tested on: human monocyte-derived macrophages; experiment: cells; conditions: Macrophage, read-out: IC50 of MIF-triggered Dil-oxLDL uptake
[4] = molecular target: T1, CXCL12 (Homo sapiens, UniProt P48061); experiment: Dot blot titration with TAMRA-msR4M-L1, immobilized CXCL12; format: binding
T1 construct: purchased Peprotech (or a gift of Dr. von Hundelshausen, LMU Munich)
Protocol: Dot blot. […] Non-specific binding was blocked with Tris-buffered saline (TBS), pH 7.4, containing 0.1% Tween-20 (TBS-T) and 1% BSA. […] Fluorescence intensities were measured at 600 nm using an Odyssey® Fc imager (LICOR Biosciences, Bad Homburg, Germany). The total intensity of each spot was automatically corrected by the individual background signal.

[5] = molecular target: T2, plaque-associated MIF (Mus musculus, UniProt P34884); experiment: Staining of mouse atherosclerotic plaque sections with Fluos-msR4M-L1; conditions: Ldlr−/− aortic root, Apoe−/− brachiocephalic artery
T2 construct: from tissue; host or cells: aortic root (Ldlr-/-) and brachiocephalic artery (Apoe-/-) sections of atherogenic mice
Protocol: Staining of atherosclerotic plaque tissue with Fluos-msR4M-L1. Immunofluorescent staining of atherosclerotic tissue with Fluos-msR4M-L1 was performed with specimens from atherogenic Ldlr^−/− and Apoe^−/− mice. Ldlr^−/− mice were on chow diet for 30 weeks and developed native atherosclerotic lesions as reported previously^14. Mif-deficient mice (Ldlr^−/− Mif^−/−) were used for comparison. Aortic root sections were deparaffinized and rehydrated. For antigen retrieval, slides were boiled in sodium citrate buffer, pH 6.0, 0.05% Tween-20, and blocked with PBS, containing 5% donkey serum and 1% BSA. For staining, slides were incubated at 4° C. with Fluos-msR4M-L1 (5 μM) in blocking buffer. DAPI was used for nuclear counterstain and sections were imaged using a Leica DMI8 fluorescent microscope. The mean fluorescence intensity localized to the aortic vessel wall was quantified via Image J.
Sides were fixed in ice-cold acetone, rehydrated in PBS, and blocked in PBS/1% BSA, incubated with 500 nM Fluos-msR4M-L1, and analyzed as above.

[6] = tested on: atherogenic Apoe−/− mice; experiment: Localization of in-vivo-administered Fluos-msR4M-L1 (multiphoton microscopy); set-up: species or system mouse; conditions: three days before vessel preparation
[7] = tested on: human carotid atherosclerotic plaque sections; experiment: Staining of human carotid endarterectomy plaque sections with Fluos-msR4M-L1
Text: Patient population, study groups and tissue samples. Carotid artery tissue samples (n=28) came from the Munich Vascular Biobank (MVB) and were from patients who underwent carotid endarterectomy (CEA) in the Department of Vascular and Endovascular Surgery at University Hospital of Technische Universität München. Preparation of samples for histological and IHC analysis has been reported^40. […] Healthy FFPE carotid vessels were obtained from the Forensic Medicine Department (n=6). The type of atherosclerotic lesions in the CEA samples was determined according to the American Heart Association (AHA) guidelines using HE and Elastica-van-Gieson (EVG) staining procedures as described^40. […] The study was approved by the local ethical committee of the University Hospital and followed the Guidelines of the World Medical Association Declaration of Helsinki. All patients provided informed consent. Immunohistochemistry/immunofluorescence staining. Immunofluorescence staining of human CEA tissues with Fluos-msR4M-L1 was performed using the same protocol as for paraffin-embedded specimens from Ldlr^−/− mice (see above). […] HRP-conjugated polyclonal rabbit anti-goat immunoglobulin (DAKO, P0160, 1:1000) was used as secondary antibody. Slides were counterstained with Mayer hematoxylin and stainings analyzed with a Leica DMi8.

T1 sequence (P48061 22-93): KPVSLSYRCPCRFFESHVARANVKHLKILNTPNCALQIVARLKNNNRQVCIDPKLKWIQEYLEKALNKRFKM

c1cc(CN2CCCNCCNCCCNCC2)ccc1CN1CCCNCCNCCCNCC1 [AMD3100, reference compound]
effect on MIF-mediated Dil-LDL uptake [1]: blocked
CXCR4-dependent part of MIF-triggered oxLDL uptake [2]: approximately 50%
IC50 [3]: 48.9 nM

CC[C@H](C)[C@H](NC(=O)[C@H](Cc1ccc(O)cc1)NC(=O)[C@H](CCCNC(=N)N)NC(=O)[C@H](CC(=O)O)NC(=O)CCCCCCCCCCCNC(=O)CCCCCNC(=O)[C@H](CCCCN)NC(=O)[C@H](CS)NC(=O)[C@H](CC(C)C)NC(=O)[C@H](Cc1ccccc1)NC(=O)[C@H](CC(N)=O)NC(=O)CNC(=O)[C@H](Cc1ccccc1)NC(=O)[C@H](Cc1ccc(O)cc1)NC(=O)[C@H](Cc1c[nH]c2ccccc12)NC(=O)[C@H](CC(N)=O)NC(=O)[C@H](C)NC(=O)[C@@H](NC(=O)[C@H](C)NC(=O)[C@H](CC(=O)O)NC(=O)c1ccc2c(c1)C(=O)OC21c2ccc(N(C)C)cc2Oc2cc(N(C)C)ccc21)C(C)C)C(=O)N[C@@H](CS)C(=O)N[C@@H](CC(=O)O)C(=O)N[C@@H](CCCNC(=N)N)C(=O)N[C@@H](Cc1ccccc1)C(=O)N[C@@H](Cc1ccc(O)cc1)C(=O)N1CCC[C@H]1C(=O)N[C@@H](CC(N)=O)C(=O)N[C@@H](CC(=O)O)C(=O)N[C@@H](CC(C)C)C(=O)N[C@@H](Cc1c[nH]c2ccccc12)C(=O)N[C@H](C(N)=O)C(C)C [TAMRA-msR4M-L1, TAMRA-ECL1-6-Ahx-12-Ado-ECL2]
binding to immobilized CXCL12 on dot blot [4]: no binding to CXCL12

Fluos-ECL1-6-Ahx-12-Ado-ECL2 (DAVANWYFGNFLCKDRYICDRFYPNDLWV; non-natural residues) [Fluos-msR4M-L1]
staining of plaque sections, Mif-proficient versus Mif-deficient mice [5]: significantly more pronounced in plaque tissue from Mif-proficient atherogenic
tissue localization after intraperitoneal injection [6]: strongly localized to intimal plaque areas, while staining in spleen, liver, and brain was marginal
staining of stable versus unstable human carotid plaques and healthy vessels [7]: pronounced staining of stable carotid plaque tissue that was higher than Fluos-msR4M-L1 positivity detected in unstable plaques and healthy vessels
